# Measurements taken from patent US7348334B2, “Monocyclic derivatives of aryl alkanoic acids and their use in medicine: process for their preparation and pharmaceutical compositions containing them” (Dr. Reddy's Laboratories Limited, priority 2001, dated 2008).
# Where a name gives a salt, the structure may show the parent alone.
# Legend:
# [1] = test system: C57BL/KsJ-db/db mice; experiment: Blood sugar and triglyceride lowering in db/db mice; type: in vivo, mouse; details: 10 mg/kg oral gavage daily for 6 days
# Description: Mutation in colonies of laboratory animals and different sensitivities to dietary regimens have made the development of animal models with non-insulin dependent diabetes and hyperlipidemia associated with obesity and insulin resistance possible. Genetic models such as db/db and ob/ob (Diabetes, (1982) 31(1): 1-6) mice and zucker fa/fa rats have been developed by the various laboratories for understanding the pathophysiology of disease and testing the efficacy of new antidiabetic compounds (Diabetes, (1983) 32: 830-838; Annu. Rep. Sankyo Res. Lab. (1994). 46: 1-57). The homozygous animals, C57 BL/KsJ-db/db mice developed by Jackson Laboratory, US, are obese, hyperglycemic, hyperinsulinemic and insulin resistant (J. Clin. Invest., (1990) 85: 962-967), whereas heterozygous are lean and normoglycemic. In db/db model, mouse progressively develops insulinopenia with age, a feature commonly observed in late stages of human type II diabetes when blood sugar levels are insufficiently controlled. The state of pancreas and its course vary according to the models. Since this model resembles that of type II diabetes mellitus, the compounds of the present invention were tested for blood sugar and triglycerides lowering activities.
# […] C57BL/KsJ-db/db mice of 8 to 14 weeks age, having body weight range of 35 to 60 grams, bred at Dr. Reddy's Research Foundation (DRF) animal house, were used in the experiment. The mice were provided with standard feed (National Institute of Nutrition (NIN), Hyderabad, India) and acidified water, ad libitum. The animals having more than 350 mg/dl blood sugar were used for testing. The number of animals in each group was 4.
# Test compounds were suspended on 0.25% carboxymethyl cellulose and administered to test group at a dose of 0.001 mg to 30 mg/kg through oral gavage daily for 6 days. The control group received vehicle (dose 10 ml/kg). On 6th day the blood samples were collected one hour after administration of test compounds/vehicle for assessing the biological activity.
# The random blood sugar and triglyceride levels were measured by collecting blood (100 μl) through orbital sinus, using heparinised capillary in tubes containing EDTA which was centrifuged to obtain plasma. The plasma glucose and triglyceride levels were measured spectrometrically, by glucose oxidase and glycerol-3-PO4 oxidase/peroxidase enzyme (Dr. Reddy's Lab. Diagnostic Division Kits, Hyderabad, India) methods respectively.
# The blood sugar and triglycerides lowering activities of the test compound was calculated according to the formula.
# (§1) 1. Percent reduction in Blood sugar/triglycerides/total cholesterol were calculated according to the formula: […]
# [2] = target: T1, hPPARγ1 (Homo sapiens, UniProt P37231); experiment: Determination of hPPARγ activity (GAL4 fusion luciferase reporter in HEK-293 cells); type: cell-based; details: compound at 1 μM
# T1 construct: expressed in transfected cells; host or cells: HEK-293
# T1 sequence (P37231 238-503 limits assumed): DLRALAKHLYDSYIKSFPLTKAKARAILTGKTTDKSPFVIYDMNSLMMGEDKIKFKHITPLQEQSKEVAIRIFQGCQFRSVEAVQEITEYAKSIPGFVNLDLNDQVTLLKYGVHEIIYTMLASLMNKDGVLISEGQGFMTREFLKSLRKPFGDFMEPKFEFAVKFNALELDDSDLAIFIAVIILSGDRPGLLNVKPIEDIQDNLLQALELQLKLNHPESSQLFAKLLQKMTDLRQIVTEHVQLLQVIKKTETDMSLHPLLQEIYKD
# Protocol: b) Determination of hPPARγ Activity:
# Ligand binding domain of hPPARγ1 was fused to DNA binding domain of Yeast transcription factor GAL4 in eucaryotic expression vector. Using lipofectamine (Gibco BRL, USA) as transfecting reagent HEK-293 cells were transfected with this plasmid and a reporter plasmid harboring the luciferase gene driven by a GAL4 specific promoter. Compound was added at 1 μM concentration after 48 hrs of transfection and incubated overnight.
# [3] = target: T2, hPPARα (Homo sapiens, UniProt Q07869); experiment: Determination of hPPARα activity (GAL4 fusion luciferase reporter in HEK-293 cells); type: cell-based; details: compound at 50 μM
# T2 construct: expressed in transfected cells; host or cells: HEK-293
# T2 sequence (Q07869 239-466 limits assumed): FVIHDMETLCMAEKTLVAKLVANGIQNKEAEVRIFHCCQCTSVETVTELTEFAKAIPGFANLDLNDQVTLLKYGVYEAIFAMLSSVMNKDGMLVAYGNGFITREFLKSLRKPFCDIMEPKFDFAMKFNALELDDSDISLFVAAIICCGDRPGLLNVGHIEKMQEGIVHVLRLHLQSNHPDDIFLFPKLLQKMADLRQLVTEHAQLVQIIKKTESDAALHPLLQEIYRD
# Protocol: a) Determination of hPPARα Activity:
# Ligand binding domain of hPPARα was fused to DNA binding domain of Yeast transcription factor GAL4 in eucaryotic expression vector. Using superfect (Qiagen, Germany) as transfecting reagent HEK-293 cells were transfected with this plasmid and a reporter plasmid harboring the luciferase gene driven by a GAL4 specific promoter. Compound was added at different concentrations after 42 hrs of transfection and incubated overnight. Luciferase activity as a function of compound binding/activation capacity of PPARα was measured using Packard Luclite kit (Packard, USA) in Top Count (Ivan Sadowski, Brendan Bell, Peter Broag and Melvyn Hollis. Gene. 1992. 118: 137-141; Superfect Transfection Reagent Handbook. February 1997. Qiagen, Germany).
# [4] = test system: Swiss albino mice; experiment: Plasma triglyceride lowering activity in Swiss albino mice and guinea pigs; type: in vivo, mouse
# Protocol: c) Plasma Triglyceride and Total Cholesterol Lowering Activity in Swiss Albino Mice and Guinea Pigs:
# Male Swiss albino mice (SAM) and male Guinea pigs were obtained from NIN and housed in DRF animal house. All these animals were maintained under 12 hour light and dark cycle at 25±1° C. Animals were given standard laboratory chow (NIN, Hyderabad, India) and water, ad libitum. SAM of 20-25 g body weight range and Guinea pigs of 500-700 g body weight range were used (Oliver, P., Plancke, M. O., Marzin, D., Clavey, V., Sauzieres, J and Fruchart, J. C. Effects of fenofibrate, gemfibrozil and nicotinic acid on plasma lipoprotein levels in normal and hyperlipidemic mice. Atherosclerosis, 1988. 70: 107-114).
# The test compounds were administered orally to Swiss albino mice at 0.3 to 30 mg/kg/day dose for 6 days. Control mice were treated with vehicle (0.25% Carboxymethylcellulose; dose 10 ml/kg). The test compounds were administered orally to Guinea pigs at 0.3 to 30 mg/kg/day dose for 6 days. Control animals were treated with vehicle (0.25% Carboxymethylcellulose; dose 5 ml/kg).
# The blood samples were collected in fed state 1 hour after drug administration on 0 and 6 day of treatment. The blood was collected from the retro-orbital sinus through heparinised capillary in EDTA containing tubes. After centrifugation, plasma sample was separated for triglyceride and total cholesterol (Wieland, O. Methods of Enzymatic analysis. Bergermeyer, H. O., Ed., 1963. 211-214; Trinder, P. Ann. Clin. Biochem. 1969. 6: 24-27). Measurement of plasma triglyceride, total cholesterol and HDL were done using commercial kits (Dr. Reddy's Diagnostic Division, Hyderabad, India).
# as §1
melting point [°C],Compound,further results
68 to 70,CCCCCCCN(C(=O)Cn1c(CC)nc(-c2ccccc2)cc1=O)c1ccc(OC(C)(C)C(=O)O)cc1 [Example 30],Reduction in Blood Glucose Level (%) [1]: 34%; Triglyceride Lowering (%) [1]: 63%
164 to 166,CCc1nc(-c2ccccc2)cc(=O)n1CCSc1ccc(OCC(=O)O)cc1 [Example 41],
140 to 143,CCCCCCC(Oc1ccc(NC(=O)Cn2c(CC)nc(-c3ccccc3)cc2=O)cc1)C(=O)OCC (stereo not drawn) [Example 9],
88 to 89,CCCCCCCN(c1ccc(OCCn2c(CC)nc(-c3ccccc3)cc2=O)cc1)C(C)C(=O)OCC (stereo not drawn) [Example 25],
158 to 160,CCc1nc(-c2ccccc2)cc(=O)n1CCOc1ccc(OC(C)(C)C(=O)O)cc1 [Example 31],
58 to 60,CCCCCCCN(C(=O)Cn1c(CC)nc(-c2ccccc2)cc1=O)c1ccc(S[C@@H](CC(C)C)C(=O)O)cc1 [Example 43],PPARγ [2]: 2.2; PPARα [3]: 6.7; Reduction in Blood Glucose Level (%) [1]: 39%; Triglyceride Lowering (%) [1]: 43%; Triglyceride Lowering (%) ([4]; 3 mg/kg orally for 6 days): 44%
192 to 194,CCc1nc(-c2ccccc2)cc(=O)n1CCOc1ccc(NC(C)C(=O)O)cc1 (stereo not drawn) [Example 35],PPARγ [2]: 2.2; PPARα [3]: 6.2
195 to 200,CCc1nc(-c2ccccc2)cc(=O)n1CC(=O)Nc1ccc(SC(C(=O)O)C(C)C)cc1 (stereo not drawn) [Example 45],PPARγ [2]: 0.8; PPARα [3]: 7.2
,"CCCCCCCN(C(=O)Cn1c(CC)nc(-c2ccccc2)cc1=O)c1ccc(SC(C(=O)O)C(C)C)cc1 (stereo not drawn) [Example 26, 2-[4-(2-Ethyl-6-oxo-4-phenyl-1,6-dihydropyrimidin-1-ylmethyl(heptyl)carboxamido)phenylsulfanyl}-3-methyl butanoic acid]",Reduction in Blood Glucose Level (%) [1]: 41%; Triglyceride Lowering (%) [1]: 45%
155 to 157,CCCC(Nc1ccc(OCCn2c(CC)nc(-c3ccccc3)cc2=O)cc1)C(=O)O (stereo not drawn) [Example 39],
210,CCc1nc(-c2ccccc2)cc(=O)n1CCNC(=O)c1ccc(OC(C)(C)C(=O)O)cc1 [Example 27],
62 to 64,CCc1nc(-c2ccccc2)cc(=O)n1CCNc1ccc(SC(CC(C)C)C(=O)O)cc1 (stereo not drawn) [Example 47],
64,CCc1nc(-c2ccccc2)cc(=O)n1CCOc1ccc(SC(C(=O)O)C(C)C)cc1 (stereo not drawn) [Example 44],Triglyceride Lowering (%) ([4]; 3 mg/kg orally for 6 days): 36%
,"CCCCCCCN(C(=O)Cn1c(CC)nc(-c2ccccc2)cc1=O)c1ccc(SC(CC)C(=O)O)cc1 (stereo not drawn) [Example 49, 2-[4-(2-Ethyl-6-oxo-4-phenyl-1,6-dihydropyrimidin-1-ylmethyl(heptyl)carboxamido)phenylsulfanyl}butanoic acid, arginine salt]",Triglyceride Lowering (%) ([4]; 10 mg/kg orally for 6 days): 69%
148 to 150,CCOC(=O)C(C)(C)Oc1ccc(C(=O)NCCn2c(CC)nc(-c3ccccc3)cc2=O)cc1 [Example 2],
168 to 169,CCc1nc(-c2ccccc2)cc(=O)n1CCOc1ccc(NC(C)(C)C(=O)O)cc1 [Example 38],
65 to 70,CCc1nc(-c2ccccc2)cc(=O)n1CCNc1ccc(SC(C(=O)O)C(C)C)cc1 (stereo not drawn) [Example 48],
40,CCCC(Nc1ccc(OCCn2c(CC)nc(-c3ccccc3)cc2=O)cc1)C(=O)OCC (stereo not drawn) [Example 24],
48 to 50,CCCCCCCN(C(=O)Cn1c(CC)nc(-c2ccccc2)cc1=O)c1ccc(OC(CCC)C(=O)O)cc1 (stereo not drawn) [Example 37],
128 to 130,CCOC(=O)C(C)(C)Oc1ccc(NC(=O)Cn2c(CC)nc(-c3ccccc3)cc2=O)cc1 [Example 4],
,"Cc1cccc(Nc2cc(Cl)nc(SCC(=O)O)n2)c1C [Wy 14643, reference compound]",PPARα [3]: 7
52 to 54,CCCCCCCN(C(=O)Cn1c(CC)nc(-c2ccccc2)cc1=O)c1ccc(OC(C)(CC)C(=O)O)cc1 (stereo not drawn) [Example 36],PPARγ [2]: 1.2; PPARα [3]: 7.5
159 to 161,CCc1nc(-c2ccccc2)cc(=O)n1CCOc1ccc(OC(C)(CC)C(=O)O)cc1 (stereo not drawn) [Example 33],
190 to 192,CCCC(Oc1ccc(OCCn2c(CC)nc(-c3ccccc3)cc2=O)cc1)C(=O)O (stereo not drawn) [Example 32],
80 to 82,CCCC(Oc1ccc(OCCn2c(CC)nc(-c3ccccc3)cc2=O)cc1)C(=O)OCC (stereo not drawn) [Example 16],
118,CCc1nc(-c2ccccc2)cc(=O)n1CCNc1ccc(SC(CC)C(=O)O)cc1 (stereo not drawn) [Example 46],PPARγ [2]: 3.1; PPARα [3]: 6.5
120,CCc1nc(-c2ccccc2)cc(=O)n1CC(=O)Nc1ccc(OC(C)(C)C(=O)O)cc1 [Example 29],
52,CCc1nc(-c2ccccc2)cc(=O)n1CCOc1ccc(NC(C)C(=O)O)cc1 (stereo not drawn) [Example 34],
